The values below are quoted from earlier work in patent publication US20050101653A1, “Combination therapy for the treatment of migraine” (priority 1999, published 2005).

In the series the test system is carotid vascular resistance. As to conditions: anaesthetized dog.

Consider `CNS(=O)(=O)Cc1ccc2[nH]cc(CCN(C)C)c2c1` [Sumatriptan, sumatriptan], for which the “effect on carotid vascular resistance” value is recorded as “selective increase in carotid vascular resistance”.
